{"source": "patent US20050064563A1", "about": "“Nucleic acids for aminocoumarin biosynthesis” (priority 2001, published 2005)", "origin": "cited, not measured here", "biological_target": "intact gyrase (bacterial DNA gyrase) (Escherichia coli, UniProt P0AES6)", "conditions": "intact gyrase heterotetramer; Peng et al. (1993) J. Biol. Chem. 268: 24481-24490; read-out: concentration achieving 50% inhibition of gyrase"}
{"molecule": "CO[C@H]1[C@H](OC(=O)c2ccc(C)[nH]2)[C@H](O)[C@@H](Oc2ccc3c(O)c(NC(=O)c4c[nH]c(C(=O)Nc5c(O)c6ccc(O[C@H]7OC(C)(C)[C@@H](OC)[C@H](OC(=O)c8ccc(C)[nH]8)[C@@H]7O)c(C)c6oc5=O)c4C)c(=O)oc3c2C)OC1(C)C", "note": "[coumermycin A1]", "values": [{"measurement": "IC50", "value": 4, "unit": "nM"}]}
